“And” between values parts separate entries of the source, which are not always exact repeats. Equal entries are not always repeated. Marks after values point to notes of the source that are not given here.
Columns and labels:
[1] = tested on: hyperthermia induced by intramuscular injection of pyrogenal; test: Antipyretic activity, pyrogenal hyperthermia (curative mode); format: in vivo, rats
Experimental: The antipyretic effect of test substances in therapeutic (curative) mode was investigated on 48 rats with body mass 182-205 g, with hyperthermia induction by injecting pyrogenal in dose 100 μg (Shwarz G Y, Syubaev R D, Vedomosti NCEG lekarstvennyh sredstv MZ RF 2000; 1:44-50 (Rus). Test substances were given p.o. 2 hours after injection of pyrogenal immediately after the recording of elevated body temperature. Rectal temperature was measured by electric thermometer TERMO before the i.m. injection of pyrogenal (baseline temperature), at the peak of hyperthermia (pyrogenal control) and 30 min. after treatment with test substance, i.e., 2½ hours after the injection of pyrogenal. Ambient temperature in laboratory was kept at 20-22° C.

[2] = tested on: FeCl3 induced carotid artery thrombosis; test: FeCl3 induced carotid artery thrombosis, time till occlusion; format: in vivo, Wistar rats; settings: for Time till occlusion, %: control = 100
From the text: We chose an experimental thrombosis model based on rat arterial thrombosis induced by FeCl3 (Kurz K et al, Thromb Res 1990, 60:269-280. Wang X, Xu L, Thromb Res 2005,115:95-100). Tissue damage initiated by iron-mediated chemical oxidation predisposes the injured area to platelet adherence and aggregation followed by coagulation activation and fibrin deposition. Male Wistar rats with mass 350-420 g were used in experiments. Animals were kept in groups of 7-8 in adequate cages in climatized room at 22±1° C., relative humidity 60±5% and 12/12-hour light/darkness cycle with free access to feed and water. All experiments were carried out in accordance with the European Community Council's Directive of 24 Nov. 1986 (86/609/EEC) relative to experimental animal care. All efforts were made to minimize animal suffering and to reduce the number of animals used. Rats were randomly divided into various experimental groups, each consisting of not less than seven animals. The vehicle or test compound MD (25 mg/kg), NA (25 mg/kg), MASA (10 mg/kg), ASA (5 mg/kg) and combination MD+NA (25+25 mg/kg), MASA+NA (10+25 mg/kg) and ASA+NA (5+25 mg/kg) was administered by oral route 2 h before the initiation of thrombosis. Parallel experiments were conducted to compare the effects of a single dose of test substance (given 2 h before the initiation of thrombosis) and repeated doses (once daily for 3 days). […] Rats were anaesthetized with pentobarbital sodium (50 mg/kg, i.p. and 10 mg/kg/h) and were placed on a heat controlled operating table throughout the experiment to maintain a body temperature of 37° C. One of the carotid arteries was exposed by cervical incision, separated from the adherent tissue, vagus nerve, and a flow probe (electromagnetic blood flow meter MFV 1200, Nicon Kohden, Japan) was placed on the exposed segment of common carotid artery to record the blood flow. After a stabilization period of 15 min, thrombosis was induced by topically applying (in contact with the adventitial surface of vessel) two pieces (2×1 mm) of Whatman filter paper, soaked in 15% solution of FeCl3. Thrombosis time of carotid artery was recorded as time taken for the complete cessation of the blood flow and has been reported as time till occlusion (TTO).

[3] = tested on: serum lipid levels (C, HDL, LDL, TG); test: Acute hyperlipidemia model (Triton WR1339); format: in vivo, Wistar rats; settings: serum 24 h
Experimental: Male Wistar rats with body mass of 250-270 g were used. Animals were held in groups of 6-8 in climatized rooms at 22±1° C., relative humidity 60±5%, and 12/12-hour light/dark cycle with free access to water and feed. […] The solution of test substances or water was introduced to control and TR group animals p.o. one hour before and 20 hours after the introduction of TR as described below.
Blood for biochemical analysis was collected on the next day (24 hours after the injection of TR) by heart punction under ether narcosis. Serum was separated by centrifugation and analyzed for total cholesterol, HDL, LDL and TG levels by commercial kits.

[4] = tested on: response to thermal irritation (hot plate); test: Mouse hot plate test; format: in vivo, mice
[5] = tested on: hyperthermia induced by intramuscular injection of pyrogenal; test: Preventive antipyretic activity, pyrogenal hyperthermia; format: in vivo, Wistar rats
Experimental: Experiments were conducted on 48 Wistar rats with body mass 165-182 g by intramuscular injection of pyrogenal (Gamalei State Research Institution, Moscow, Russia) in 100 μg dose (Shwarz G Y, Syubaev R D, Vedomosti NCEG lekarstvennyh sredstv MZ RF 2000; 1:44-50 (Rus). Test substances were given p.o. one hour before the pyrogenal injection. Rectal temperature was measured by electric thermometer TERMO before injection of pyrogenal (baseline) and for 3 hours after injection. The antipyretic activity was evaluated by the reduction of hyperthermic reaction 2 hours after injection of pyrogenal that correlated well with the published data (10) about the peak of reaction (Table 6). Ambient temperature was kept at 20-21° C.

tail bleeding = test: Tail bleeding time during thrombosis experiment; format: in vivo, rats; settings: for Tail bleeding time, %: control = 100
Experimental: Additionally during the thrombosis experiment rat tail bleeding time was measured. The tail was transected 5 mm from the tip with scalpel and the tail was immediately immersed into 37° C. warm isotonic saline until termination of bleeding was noted. Termination of bleeding was defined as the time of complete stop of bleeding with no recurrence of bleeding within the next 30 s.

[6] = 5 mg/kg/d p.o., repeated, 3 days
[7] = 10 mg/kg/d p.o., repeated, 3 days
[8] = 25 mg/kg p.o., single dose 2 h before

CC(=O)Oc1ccccc1C(=O)O [ASA, acetylsalicylic acid]
Rectal temperature at 30 minutes after treatment ([1]; 50 mg/kg p.o. 2 h after pyrogenal): 36.51 ± 0.15*^$ ° C.
Time till occlusion ([2]; 5 mg/kg p.o., single dose 2 h before): 35.2 ± 3.02^1 min
Time till occlusion, % ([2]; 5 mg/kg p.o., single dose): 144%
Time till occlusion [2, 6]: 40.9 ± 3.25^1 min
Time till occlusion, % [2, 6]: 162%
C ([3]; 45 mg/kg p.o. 1 h before and 20 h after TR 250 mg/kg): 381.0 ± 30.3 mg/dL
HDL ([3]; 45 mg/kg p.o., TR 250 mg/kg): 62.8 ± 10.9 mg/dL
LDL ([3]; 45 mg/kg p.o., TR 250 mg/kg): 307.4 ± 37.8 mg/dL
TG ([3]; 45 mg/kg p.o., TR 250 mg/kg): 973 ± 82.7 mg/dL
C ([3]; 90 mg/kg p.o., TR 250 mg/kg): 288.1 ± 23.5 mg/dL
HDL ([3]; 90 mg/kg p.o., TR 250 mg/kg): 60.0 ± 7.4 mg/dL
LDL ([3]; 90 mg/kg p.o., TR 250 mg/kg): 219.1 ± 23.9 mg/dL
TG ([3]; 90 mg/kg p.o., TR 250 mg/kg): 791 ± 73.9 mg/dL
Latent period at 30 min after introduction of test substance ([4]; 50 mg/kg p.o.): 5.4 ± 0.46 s
Latent period at 60 min after introduction of test substance ([4]; 50 mg/kg p.o.): 9.7 ± 1.05 s
Rectal temperature 120 minutes after injection ([5]; 50 mg/kg p.o. 1 h before pyrogenal): 35.6 ± 0.19***^$ ° C.
Tail bleeding time (tail bleeding; 5 mg/kg p.o., single dose): 13.8 ± 3.27 min
Tail bleeding time, % (tail bleeding; 5 mg/kg p.o., single dose): 155%
Tail bleeding time (tail bleeding; [6]): 17.8 ± 3.17^1 min
Tail bleeding time, % (tail bleeding; [6]): 207%

CC(=O)Oc1ccccc1C(=O)[O-].C[N+](C)(C)NCCC(=O)O [MASA, 3-(trimethylammonioamino)propanoate Acetylsalicylic Acid Addition Salt]
Rectal temperature at 30 minutes after treatment ([1]; 75 mg/kg p.o. 2 h after pyrogenal): 36.90 ± 0.07 °C
Rectal temperature at 30 minutes after treatment ([1]; 150 mg/kg p.o. 2 h after pyrogenal): 36.75 ± 0.09^#$ ° C.
Rectal temperature at 30 minutes after treatment ([1]; 300 mg/kg p.o. 2 h after pyrogenal): 36.40 ± 0.11*^$$% ° C.
Time till occlusion ([2]; 10 mg/kg p.o., single dose 2 h before): 41.7 ± 3.95^2 min and 41.7 ± 3.95^2b min
Time till occlusion, % ([2]; 10 mg/kg p.o., single dose): 171%
Time till occlusion [2, 7]: 48.4 ± 4.35^2 min
Time till occlusion, % [2, 7]: 191%
C ([3]; 75 mg/kg p.o., TR 250 mg/kg): 341.9 ± 16.3 mg/dL
HDL ([3]; 75 mg/kg p.o., TR 250 mg/kg): 68.1 ± 8.7 mg/dL
LDL ([3]; 75 mg/kg p.o., TR 250 mg/kg): 270.1 ± 12.8 mg/dL
TG ([3]; 75 mg/kg p.o., TR 250 mg/kg): 861 ± 105.7 mg/dL
C ([3]; 150 mg/kg p.o., TR 250 mg/kg): 249.6 ± 22.2**^$& mg/dl and 249.6 ± 22.2**^$ mg/dl and 249.6 ± 22.2**^& mg/dl
HDL ([3]; 150 mg/kg p.o., TR 250 mg/kg): 58.2 ± 8.1 mg/dL
LDL ([3]; 150 mg/kg p.o., TR 250 mg/kg): 182.4 ± 19.6**^$& mg/dl and 182.4 ± 19.6**^$ mg/dl and 182.4 ± 19.6**^& mg/dl
TG ([3]; 150 mg/kg p.o., TR 250 mg/kg): 668 ± 104.4**^$& mg/dl and 668 ± 70.9**^$ mg/dl and 668 ± 70.9**^& mg/dl
C ([3]; 300 mg/kg p.o., TR 250 mg/kg): 219.0 ± 16.7**^$#& mg/dl
HDL ([3]; 300 mg/kg p.o., TR 250 mg/kg): 56.3 ± 8.6 mg/dL
LDL ([3]; 300 mg/kg p.o., TR 250 mg/kg): 158.6 ± 19.4**^$#& mg/dl
TG ([3]; 300 mg/kg p.o., TR 250 mg/kg): 548 ± 73.2***^&$# mg/dl
Latent period at 30 min after introduction of test substance ([4]; 75 mg/kg p.o.): 5.4 ± 0.38 s
Latent period at 60 min after introduction of test substance ([4]; 75 mg/kg p.o.): 4.6 ± 0.26 s
Latent period at 30 min after introduction of test substance ([4]; 150 mg/kg p.o.): 9.5 ± 0.53***^&&& s
Latent period at 60 min after introduction of test substance ([4]; 150 mg/kg p.o.): 7.1 ± 0.55 s
Latent period at 30 min after introduction of test substance ([4]; 300 mg/kg p.o.): 9.6 ± 1.12**^& s
Latent period at 60 min after introduction of test substance ([4]; 300 mg/kg p.o.): 8.6 ± 0.60 s
Rectal temperature 120 minutes after injection ([5]; 75 mg/kg p.o. 1 h before pyrogenal): 36.3 ± 0.20 °C
Rectal temperature 120 minutes after injection ([5]; 150 mg/kg p.o. 1 h before pyrogenal): 36 ± 0.21 °C
Rectal temperature 120 minutes after injection ([5]; 300 mg/kg p.o. 1 h before pyrogenal): 35.8 ± 0.16***^$ ° C.
Tail bleeding time (tail bleeding; 10 mg/kg p.o., single dose): 12.1 ± 2.20 min
Tail bleeding time, % (tail bleeding; 10 mg/kg p.o., single dose): 136%
Tail bleeding time (tail bleeding; [7]): 13.1 ± 2.63 min
Tail bleeding time, % (tail bleeding; [7]): 152%

C[N+](C)(C)NCCC(=O)[O-].O.O [MD, 3-(Trimethylammonioamino)propanoate dihydrate]
Rectal temperature at 30 minutes after treatment ([1]; 100 mg/kg p.o. 2 h after pyrogenal): 37.10 ± 0.14 °C
Time till occlusion [2, 8]: 29.8 ± 2.29 min
Time till occlusion, % ([2]; 25 mg/kg p.o., single dose): 122%
C ([3]; 150 mg/kg p.o., TR 250 mg/kg): 345.6 ± 34.1 mg/dL
HDL ([3]; 150 mg/kg p.o., TR 250 mg/kg): 63.8 ± 9.3 mg/dL
LDL ([3]; 150 mg/kg p.o., TR 250 mg/kg): 273.9 ± 31.6 mg/dL
TG ([3]; 150 mg/kg p.o., TR 250 mg/kg): 1022 ± 80.7 mg/dL
Latent period at 30 min after introduction of test substance ([4]; 100 mg/kg p.o.): 9.5 ± 0.68***^&& s
Latent period at 60 min after introduction of test substance ([4]; 100 mg/kg p.o.): 8.3 ± 0.53 s
Rectal temperature 120 minutes after injection ([5]; 100 mg/kg p.o. 1 h before pyrogenal): 36.2 ± 0.16 °C
Tail bleeding time (tail bleeding; 25 mg/kg p.o., single dose): 10.5 ± 1.01 min
Tail bleeding time, % (tail bleeding; 25 mg/kg p.o., single dose): 118%

O=C(O)c1cccnc1 [NA, nicotinic acid]
Time till occlusion [2, 8]: 30.3 ± 3.12 min
Time till occlusion, % ([2]; 25 mg/kg p.o., single dose): 124%
C ([3]; 50 mg/kg p.o., TR 250 mg/kg): 327.5 ± 38.4 mg/dL
HDL ([3]; 50 mg/kg p.o., TR 250 mg/kg): 66.5 ± 14.6 mg/dL
LDL ([3]; 50 mg/kg p.o., TR 250 mg/kg): 246.3 ± 32.5 mg/dL
TG ([3]; 50 mg/kg p.o., TR 250 mg/kg): 591 ± 43.3 mg/dL
Tail bleeding time (tail bleeding; 25 mg/kg p.o., single dose): 11.5 ± 1.39 min
Tail bleeding time, % (tail bleeding; 25 mg/kg p.o., single dose): 129%

Reference: patent US8889902B2, “Acetylsalicylic acid salts” (priority 2009, dated 2014)
